≈ marks a conversion by molar mass, not a printed value.
Tests used:
[1] = tested on: Lymphocytic leukemia P-388 tumor cells; assay: Therapeutic effect upon lymphocytic leukemia P-388 tumor; assay type: in vivo, CDF1 male mice; conditions: 24 hours after transplantation
Method: Lymphocytic leukemia P-388 tumor cells (1×10^6 cells) were transplanted intraperitoneally into each of five CDF1 male mice weighing about 22 grams. Twenty-four hours after transplantation, 0.2 ml of a PBS (phosphate-buffered saline) solution of DC 113 was intraperitoneally administered to each mouse. For comparison, 0.2 ml of a PBS solution of mitomycin C was intraperitoneally administered to each of five mice 24 hours after transplantation. The life-prolonging effect of DC 113 thus established is shown below in Table 2 in terms of the T/C ratio [T mean number of days of survival after transplantation in the DC 113 group; C=mean number of days of survival after transplantation in the control group (intraperitoneally given 0.2 ml of PBS)].

Acute toxicity (LD50) = conditions: mouse, in vivo; intravenous, mice
[2] = Stability compared with DC-88A; assay type: physicochemical; conditions: relative to known compound DC-88A
Solubility = assay type: physicochemical
[3] = tested on: Salmonella typhosa ATCC 9992; assay: Antimicrobial activity, MIC by agar dilution method (pH 7.0); assay type: cell-based; conditions: Salmonella enterica, read-out: Minimum inhibitory concentration (MIC)
Method: (§1) Minimum inhibitory concentrations (MIC) against various bacteria were determined by the agar dilution method (pH 7.0).

Escherichia coli ATCC 26 = assay: as above; assay type: cell-based; conditions: ATCC26, read-out: Minimum inhibitory concentration (MIC)
Method: as §1

[4] = tested on: Bacillus subtilis No. 10707; assay: as above; assay type: cell-based; conditions: read-out: Minimum inhibitory concentration (MIC)
Method: as §1

[5] = tested on: Klebsiella pneumoniae ATCC 10031; assay: as above; assay type: cell-based; conditions: ATCC10031, read-out: Minimum inhibitory concentration (MIC)
Method: as §1

[6] = tested on: Staphylococcus aureus ATCC 6538P; assay: as above; assay type: cell-based; conditions: ATCC6538P, read-out: Minimum inhibitory concentration (MIC)
Method: as §1

Row | Structure (SMILES) | Life-prolonging effect (T/C) ([1]; 6 mg/kg i.p.) | Life-prolonging effect (T/C) ([1]; 0.0063 mg/kg i.p.) | Life-prolonging effect (T/C) ([1]; 0.013 mg/kg i.p.) | LD50 (Acute toxicity (LD50)) [mg/kg] | Stability [2] | Solubility (Solubility; in chloroform, DMSO, methanol, ethyl acetate and acetone) | Solubility (Solubility; in water and n-hexane) | MIC [3] [µg/mL] | MIC (Escherichia coli ATCC 26) [µg/mL] | MIC [4] [µg/mL] | MIC [5] [µg/mL] | MIC [6] [µg/mL]
1 | CO[C@@]12[C@H](COC(N)=O)C3=C(C(=O)C(C)=C(N)C3=O)N1C[C@@H]1N[C@@H]12 [Mitomycin C, mitomycin C, reference compound] | 151 | – | – | – | – | – | – | – | – | – | – | –
2 | COC(=O)c1cc2c([nH]1)C(=O)C=C1N(C(=O)c3cc4cc(OC)c(OC)c(OC)c4[nH]3)CC3CC123 (stereo not drawn) [DC 113] | – | 130 | 110 | 0.14 | more stable than the known compound DC-88A | Soluble | sparingly soluble | 0.1 (≈ 0.209 µM) | 0.064 (≈ 0.134 µM) | 0.00065 (≈ 0.00136 µM) | 0.021 (≈ 0.044 µM) | 0.0013 (≈ 0.00272 µM)

— patent publication US5101038A, “Novel substance DC 113 and production thereof” (priority 1988, dated 1992)
